Experimental data: patent US9868746B2, “Substituted 5-aminothieno[2,3-C]pyridazine-6-carboxamide analogs as positive allosteric modulators of the muscarinic acetylcholine receptor M4” (Vanderbilt University, priority 2012, dated 2018)
pEC50: −log10 of the molar value. Blank lines part the entries; values can stand above or below the compound they belong to.

Target: T1, mAChR M4 (Homo sapiens, UniProt P08173)
T1 construct: expressed in transfected cells; host or cells: CHO-K1 cells stably transfected with M4 cDNA and chimeric G-protein Gqi5
T1 sequence (P08173 1-479): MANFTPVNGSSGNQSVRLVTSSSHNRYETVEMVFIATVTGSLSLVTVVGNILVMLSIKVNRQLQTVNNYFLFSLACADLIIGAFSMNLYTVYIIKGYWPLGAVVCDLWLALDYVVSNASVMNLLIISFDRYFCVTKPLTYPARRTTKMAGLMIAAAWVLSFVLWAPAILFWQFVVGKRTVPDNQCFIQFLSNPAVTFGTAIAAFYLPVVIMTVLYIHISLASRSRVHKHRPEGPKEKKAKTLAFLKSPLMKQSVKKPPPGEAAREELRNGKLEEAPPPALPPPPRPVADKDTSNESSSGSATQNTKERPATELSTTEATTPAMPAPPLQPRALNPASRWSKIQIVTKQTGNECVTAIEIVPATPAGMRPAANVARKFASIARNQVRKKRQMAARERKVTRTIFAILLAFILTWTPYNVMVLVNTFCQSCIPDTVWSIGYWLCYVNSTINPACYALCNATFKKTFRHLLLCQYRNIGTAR
Experiment: mAChR M4 cell-based functional assay (calcium mobilization, potentiation of EC20 acetylcholine response)
Details: for Emax at 30 µM: % ACh maximum at 30 μM; for pEC50: mAChR M4 cell-based functional assay, >10,000 estimated for low potency compounds without plateau, read-out: EC50

SMILES: Cc1nnc2sc(C(=O)N3CC4(C3)CN(S(=O)(=O)c3ccccc3)C4)c(N)c2c1C [Example B394]
Emax at 30 µM: 47% | pEC50: 5.96

SMILES: Cc1nnc2sc(C(=O)NC3CCOC3)c(N)c2c1C (centres unmarked) [Example B35]
Emax at 30 µM: 77% | pEC50: 6.08

SMILES: Cc1nnc2sc(C(=O)NC3CCN(C(=O)Cc4cccs4)C3)c(N)c2c1C (centres unmarked) [Example B227]
Emax at 30 µM: 76% | pEC50: 6.04

SMILES: Cc1nnc2sc(C(=O)N3C[C@@H]4C[C@@H]3CN4S(C)(=O)=O)c(N)c2c1C [Example B267]
Emax at 30 µM: 51% | pEC50: 5.29

SMILES: Cc1nnc2sc(C(=O)NCCc3ccncc3)c(N)c2c1C [Example B93]
Emax at 30 µM: 49% | pEC50: 5.64

SMILES: Cc1nnc2sc(C(=O)NC3CN(C(=O)N4CCCCC4)C3)c(N)c2c1C [Example B125]
Emax at 30 µM: 58% | pEC50: 6.00

SMILES: COc1ccc2c(c1)CCN(C(=O)c1sc3nnc(C)c(C)c3c1N)C2 [Example B315]
Emax at 30 µM: 57% | pEC50: 6.08

SMILES: Cc1nnc2sc(C(=O)N3CC4CN(S(C)(=O)=O)CC4C3)c(N)c2c1C (centres unmarked) [Example B277]
Emax at 30 µM: 56% | pEC50: < 5.00

SMILES: Cc1nnc2sc(C(=O)NC3CCCOC3)c(N)c2c1C (centres unmarked) [Example B96]
Emax at 30 µM: 64% | pEC50: < 5.00

SMILES: Cc1nnc2sc(C(=O)NC3(c4ccc(F)cc4)CC3)c(N)c2c1C [Example B390]
Emax at 30 µM: 46% | pEC50: < 5.00

SMILES: CCCCC1(OC)CN(C(=O)c2sc3nnc(C)c(C)c3c2N)C1 [Example B305]
Emax at 30 µM: 68% | pEC50: 6.06

SMILES: CCCCCC(=O)NC1CN(C(=O)c2sc3nnc(C)c(C)c3c2N)C1 [Example B175]
Emax at 30 µM: 52% | pEC50: < 5.00

Stronger by pEC50, values ahead:

Emax at 30 µM: 54% | pEC50: 6.22
SMILES: Cc1nnc2sc(C(=O)Nc3ccncc3)c(N)c2c1C [Example B38]

Emax at 30 µM: 51% | pEC50: 6.29
SMILES: Cc1nnc2sc(C(=O)N3CC(F)(c4ccc(S(C)(=O)=O)cc4)C3)c(N)c2c1C [Example B383]

Emax at 30 µM: 83% | pEC50: 6.35
SMILES: Cc1nnc2sc(C(=O)NCc3ccc(S(C)(=O)=O)cc3)c(N)c2c1C [Example B23]

Emax at 30 µM: 45% | pEC50: 6.36
SMILES: COc1ccc(C2(OC)CN(C(=O)c3sc4nnc(C)c(C)c4c3N)C2)cc1 [Example B290]

Emax at 30 µM: 65% | pEC50: 6.57
SMILES: Cc1nnc2sc(C(=O)NC3CN(C(=O)c4c(F)cccc4F)C3)c(N)c2c1C [Example B408]

Emax at 30 µM: 66% | pEC50: 6.60
SMILES: Cc1nnc2sc(C(=O)NCc3ccc(-c4ccc5nccnc5c4)cc3)c(N)c2c1C [Example B496]

Emax at 30 µM: 86% | pEC50: 6.74
SMILES: Cc1nnc2sc(C(=O)NCc3cc(F)ccc3F)c(N)c2c1C [Example B5]

Emax at 30 µM: 68% | pEC50: 6.74
SMILES: Cc1nnc2sc(C(=O)NC3CN(S(=O)(=O)c4ccoc4)C3)c(N)c2c1C [Example B100]

Emax at 30 µM: 56% | pEC50: 6.80
SMILES: COc1cccc(SC2CN(C(=O)c3sc4nnc(C)c(C)c4c3N)C2)c1 [Example B418]

Emax at 30 µM: 76% | pEC50: 6.82
SMILES: Cc1nnc2sc(C(=O)NC3CN(C(=O)c4ccc(F)c(F)c4)C3)c(N)c2c1C [Example B131]

Emax at 30 µM: 63% | pEC50: 6.92
SMILES: Cc1nnc2sc(C(=O)NCc3ccc([S+]([O-])C(F)F)cc3)c(N)c2c1C (single isomer, unassigned) [Example B491]

Emax at 30 µM: 74% | pEC50: 7.04
SMILES: Cc1nnc2sc(C(=O)NC3CCN(C(=O)c4cccs4)C3)c(N)c2c1C (centres unmarked) [Example B200]

Emax at 30 µM: 67% | pEC50: 7.11
SMILES: Cc1nnc2sc(C(=O)NCc3ccc(-n4cncn4)cc3)c(N)c2c1C [Example B511]

Emax at 30 µM: 73% | pEC50: 7.43
SMILES: Cc1nnc2sc(C(=O)NCc3ccc(S(C)(=O)=O)c(F)c3)c(N)c2c1C [Example B33]

Emax at 30 µM: 74% | pEC50: 7.55
SMILES: Cc1nnc2sc(C(=O)NC3CN(c4nc5ccccc5o4)C3)c(N)c2c1C [Example B425]

Emax at 30 µM: 59% | pEC50: 7.77
SMILES: COc1ccc(CNC(=O)c2sc3nnc(C)c(C)c3c2N)cc1Cl [Example B446]
